Reference: EP0533925A1, “OPTICAL ISOMER OF R-FORM OF DIPHENYL ETHER DERIVATIVE AND HERBICIDE CONTAINING THE SAME AS ACTIVE INGREDIENT” (TEIJIN LIMITED, priority 1990, dated 1991)

Assays:
Experiment in all cases: Herbicidal activity, foliar application of single compounds (Test Examples 1 to 5)
Type in all cases: in vivo
Set-up in all cases: key: 0 means the state where the plants are as sound as before the application of the active compound; 1, 2, 3 and 4 mean varying degrees of the enfeebled state of the plants between 0 and 5; 1, 2, 3 and 4 mean varying degrees of the enfeebled state of the plants between 0 and 5; 1, 2, 3 and 4 mean varying degrees of the enfeebled state of the plants between 0 and 5; 1, 2, 3 and 4 mean varying degrees of the enfeebled state of the plants between 0 and 5; 5 is the state where the plants are withered or killed by application of the active compound
Details in all cases: Rate of Application 0.031 kg/ha; 3 weeks after application
Sorghum halepense = tested on: Sorghum halepense
Procedure: (§1) In these examples, all parts means parts by weight, unless otherwise noted. The herbicidal activity was evaluated on a scale of 6 degrees. In other words, 0 means the state where the plants are as sound as before the application of the active compound, while 5 is the state where the plants are withered or killed by application of the active compound, and 1, 2, 3 and 4 mean varying degrees of the enfeebled state of the plants between 0 and 5.
(§2) The diphenyl ethers shown in Table 2 were added to 5000 parts of a mixture of acetone and water (1 : 1 by volume), and 2.6 parts of a nonionic surfactant (Sorpol 2680, tradename) was added to form a solution, so that the ether becomes the prescribed amount in each solution.
(§3) Seeds of plants were sown in the soil, cultivated for 2 to 3 weeks, after germination, then the plants were used for the tests.
(§4) The prepared solution was applied to these plants at the prescribed rate of application in total, then the plants were continuously cultivated for 3 weeks without applying the solution.
(§5) The alphabetical symbols in Tables 2 and 3 represent the following plants, respectively: a: Digitaria adscendens b: Setaria viridis c: Sorghum halepense d: Chenopodium album var. centrorubrum e: Amaranthus mangostanus f: Astragalus sinicus g: Abutilon theophrosti h: Solanum nigrum i: Xanthium strumarium j: Soybean; Glycine max k: Corn; Zea mays Table 2

Corn; Zea mays = tested on: Corn; Zea mays
Procedure: as §1, §2, §3, §4, §5

Soybean; Glycine max = tested on: Soybean; Glycine max
Procedure: as §1, §2, §3, §4, §5

Setaria viridis = tested on: Setaria viridis
Procedure: as §1, §2, §3, §4, §5

[1] = tested on: Chenopodium album var. centrorubrum
Procedure: as §1, §2, §3, §4, §5

Digitaria adscendens = tested on: Digitaria adscendens
Procedure: as §1, §2, §3, §4, §5

Abutilon theophrosti = tested on: Abutilon theophrosti
Procedure: as §1, §2, §3, §4, §5

Solanum nigrum = tested on: Solanum nigrum
Procedure: as §1, §2, §3, §4, §5

Amaranthus mangostanus = tested on: Amaranthus mangostanus
Procedure: as §1, §2, §3, §4, §5

Astragalus sinicus = tested on: Astragalus sinicus
Procedure: as §1, §2, §3, §4, §5

Xanthium strumarium = tested on: Xanthium strumarium
Procedure: as §1, §2, §3, §4, §5

COC(=O)[C@H](C)Oc1cc(Oc2ccc(C(F)(F)F)cc2Cl)ccc1C#N [S-enantiomer (1), S-enantiomer of methyl α-[2-cyano-5-(2-chloro-4-trifluoromethylphenoxy)phenoxy]propionate, reference compound]
herbicidal activity, Plants c (Sorghum halepense): 1
herbicidal activity, Plants k (Corn; Zea mays): 0
herbicidal activity, Plants j (Soybean; Glycine max): 1
herbicidal activity, Plants b (Setaria viridis): 0
herbicidal activity, Plants d [1]: 1
herbicidal activity, Plants a (Digitaria adscendens): 1
herbicidal activity, Plants g (Abutilon theophrosti): 1
herbicidal activity, Plants h (Solanum nigrum): 2
herbicidal activity, Plants e (Amaranthus mangostanus): 0
herbicidal activity, Plants f (Astragalus sinicus): 1
herbicidal activity, Plants i (Xanthium strumarium): 0
